“And” between values parts separate entries of the source, which are not always exact repeats. Identical values can stand only once.
Legend:
PKD1 [1] = molecular target: T1, PKD1 (Homo sapiens, UniProt Q15139); experiment: In vitro radiometric PKD kinase activity assay; assay type: biochemical; design: purchased Biomol International
T1 sequence (Q15139 1-912): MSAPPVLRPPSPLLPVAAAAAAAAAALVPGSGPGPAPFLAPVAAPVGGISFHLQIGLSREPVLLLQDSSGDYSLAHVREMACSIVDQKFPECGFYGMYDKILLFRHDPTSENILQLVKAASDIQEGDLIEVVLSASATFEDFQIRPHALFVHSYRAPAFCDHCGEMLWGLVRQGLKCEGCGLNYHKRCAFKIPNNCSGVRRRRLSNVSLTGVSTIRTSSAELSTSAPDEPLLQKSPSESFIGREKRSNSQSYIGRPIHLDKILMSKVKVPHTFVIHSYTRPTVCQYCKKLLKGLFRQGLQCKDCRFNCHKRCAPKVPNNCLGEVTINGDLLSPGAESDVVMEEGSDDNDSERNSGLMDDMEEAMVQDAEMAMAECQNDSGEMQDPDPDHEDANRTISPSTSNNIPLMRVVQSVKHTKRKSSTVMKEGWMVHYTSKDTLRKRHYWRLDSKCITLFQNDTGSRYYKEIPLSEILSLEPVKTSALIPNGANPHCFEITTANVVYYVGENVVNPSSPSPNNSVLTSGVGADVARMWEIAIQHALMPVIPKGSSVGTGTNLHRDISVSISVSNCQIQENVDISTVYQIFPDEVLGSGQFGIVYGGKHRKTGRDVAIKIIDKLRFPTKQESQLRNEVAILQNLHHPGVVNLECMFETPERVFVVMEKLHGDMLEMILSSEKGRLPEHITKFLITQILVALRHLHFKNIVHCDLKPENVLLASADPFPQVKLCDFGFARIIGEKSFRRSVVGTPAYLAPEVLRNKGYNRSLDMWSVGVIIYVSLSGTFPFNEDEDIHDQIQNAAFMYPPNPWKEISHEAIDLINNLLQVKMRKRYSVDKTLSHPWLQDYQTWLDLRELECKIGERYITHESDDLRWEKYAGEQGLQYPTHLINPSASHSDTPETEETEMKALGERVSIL
Procedure: In vitro radiometric PKD kinase assays were conducted as previously described. Briefly, 50 ng recombinant human PKD1 (Biomol International, Plymouth Meeting, PA, USA) was incubated at 30 °C for 10 min with a reaction mixture containing 2.5 μg syntide-2 (Sigma), 70 μM ATP, and 1 μCi γ-^32 P-ATP (PerkinElmer, Boston, MA, USA) in kinase buffer (50 mM Tris-HCl pH 7.5, […], and 10 mM […]). 25 μL of the reaction mixture was then spotted on Whatman P81 filter paper (Whatman Inc., Clifton, NJ, USA), and filter papers were washed three times with 0.5% phosphoric acid, dried, then counted using a Beckman LS6500 multi-purpose scintillation counter.

PKD1 [2] = molecular target: T1, PKD1; experiment: IMAP-based PKD Fluorescence Polarization (FP) assay, automated HTS format; assay type: biochemical; conditions: mean ± SEM, n = number of independent experiments
Procedure: An automated, HTS formatted IMAP-based PKD Fluorescence Polarization (FP) assay was used to assess the specificity of the PKD analogs as previously described. […] Kinase reactions were incubated for 90 min at room temperature and stopped by the addition of IMAP binding reagent. Assay plates were then incubated for 2 h and IMAP-based FP data were captured on a Molecular Devices Spectra-Max M5 (Sunnyvale, CA, USA).

PKD1 [3] = molecular target: T1, PKD1; experiment: % PKD1 activity at 1 μM (single concentration; assay format not stated); assay type: biochemical; conditions: compound at 1 μM
PKD1 [4] = molecular target: T1, PKD1; experiment: Cellular PKD1 inhibition: densitometry of Western blots for PKD1 autophosphorylation at S916 in PMA-stimulated LNCaP cells; assay type: cell-based; conditions: PKD1 autophosphorylation at S916 in LNCaP cells; mean ± SEM
Procedure: Inhibition of PKD 1 in cells was determined by densitometry analysis of Western blotting data for PKD1 autophosphorylation at Ser^916 in LNCaP cells as previously described. LNCaP cells were pre-treated with PKD inhibitors for 45 min at various concentrations, and then stimulated with 10 nM phorbol 12-myristate 13-acetate (PMA) for 20 min. Cells were then collected and lysed in lysis buffer containing 200 mM Tris-HCl, pH 7.4, 100 μM 4-(2-aminoethyl) benzenesulfonyl fluoride, 1 mM EGTA, and 1% Triton X-100. Cell lysates were probed by Western blot analysis using primary antibodies targeting p-S916-PKD1 (Millipore), PKD1 (Cell Signaling Technology), or GAPDH. Densitometry analysis of visualized bands was used to determine the cellular IC50 values for PKD1 inhibition.

[5] = mean ± SEM, n = number of independent experiments, read-out: IC50 Radiometric PKD1

Compound | IC50 (PKD1 [1]; [5]) [nM] | melting point | IC50 (PKD1 [2]) [nM] | remaining activity at 1 µM (PKD1 [3]) [%] | IC50 Radiometric PKD1 (PKD1 [1]; mean ± SEM, n = number of independent experiments) | IC50 (PKD1 [1]; in vitro, read-out: PKD1 IC50) [nM] | IC50 (PKD1 [4])
C=CCOc1ccc2oc3c(c2c1)CCCNC3=O [kb-NB77-84, 7-Allyloxy-2,3,4,5-tetrahydro-[1]benzoxolo[2,3-c]azepin-1-one] | 1230 | 198 to 200 °C | 2600 ± 200 |  |  |  | 
O=C1NCCCc2c1oc1ccc(O)c(Cl)c21 [kb-NB77-88, 6-Chloro-7-hydroxy-2,3,4,5-tetrahydro-[1]benzoxolo[2,3-c]azepin-1-one] | 890 | > 300 °C | 1400 ± 100 |  |  |  | 
C=CCc1c(O)ccc2oc3c(c12)CCCNC3=O [kb-NB96-02, 6-Allyl-7-hydroxy-2,3,4,5-tetrahydro-[1]benzoxolo[2,3-c]azepin-1-one] | 1580 | 255 to 257 °C | 2400 ± 300 |  |  |  | 
O=C1NCCCc2c1oc1ccc(O)c(F)c21 [kb-NB96-21, 6-Fluoro-7-hydroxy-2,3,4,5-tetrahydro-[1]benzoxolo[2,3-c]azepin-1-one] | 240 | > 300 °C | 1300 ± 50 |  |  |  | 
O=C1NCCc2c1oc1ccc(O)cc21 [kb-NB123-23A, 6-Hydroxy-3,4-dihydrobenzoxolo[2,3-c]pyridin-1(2H)-one] | 1410 | 265 to 268 °C | 12600 ± 1300 |  |  |  | 
O=C1NCCc2c1[nH]c1ccc(O)cc21 [kb-NB123-59, 2,3,4,9-Tetrahydro-6-hydroxy-1H-pyrido[3,4-b]indol-1-one] | 1570 ± 200 | 244 to 247 °C | 19400 ± 1400 |  |  |  | 
O=C1NCCC(=O)c2c1oc1ccc(O)cc21 [kb-NB123-63, 7-Hydroxy-3,4-dihydro-[1]benzoxolo[2,3-c]azepine-1,5(2H)-dione] | 850 ± 110 | > 300 °C | 14900 ± 1200 |  |  |  | 
O=C1NCCC(O)c2c1oc1ccc(O)cc21 (stereo not drawn) [kb-NB123-89, 5,7-Dihydroxy-2,3,4,5-tetrahydro-[1]benzoxolo[2,3-c]azepin-1-one] | 1230 ± 210 | 280 to 282 °C | 24100 ± 710 |  |  |  | 
O=C1NCCC(=NNc2ccccc2)c2c1oc1ccc(O)cc21 [kb-NB142-05, 7-Hydroxy-5-(2-phenylhydrazono)-2,3,4,5-tetrahydro-[1]benzoxolo[2,3-c]azepin-1-one] | 1130 | 234 to 236 °C | 21700 ± 520 |  |  |  | 
Nc1ccc2[nH]c3c(c2c1)CCNC3=O [kb-NB142-08, 6-Amino-2,3,4,9-tetrahydro-1H-pyrido[3,4-b]indol-1-one] | 15700 ± 190 | 280 to 282 °C | 74400 ± 2200 |  |  |  | 
NCCN1CCSc2c(sc3ccc(O)cc23)C1=O [kb-NB165-75, 2,3-Dihydro-4-(2-aminoethyl)-9-hydroxy-[1]benzothieno[2,3-f]-1,4-thiazepin-5(2H)-one] | 757 | 250 to 254 °C |  | 55.6 |  |  | 
c1ccc(COc2ccc3sc4c(c3c2)SCCNC4)cc1 [kb-NB165-81, 2,3,4,5-Tetrahydro-9-benzyloxy-[1]benzothieno[2,3-f]-1,4-thiazepine] | 39600 | 144 to 145 °C |  | 78.3 |  |  | 
Oc1ccc2sc3c(c2c1)SCCNC3 [kb-NB165-83, 2,3,4,5-Tetrahydro-9-hydroxy-[1]benzothieno[2,3-f]-1,4-thiazepine] | 16400 | 182 to 184 °C (dec.) |  | 92.4 |  |  | 
O=C1NCCCSc2c1sc1ccc(OCc3ccccc3)cc21 [kb-NB165-89, 2,3,4,5-Tetrahydro-10-benzyloxybenzo[b]thieno[2,3-f]-1,5-thiazocin-6-one] | 21700 | 198 to 199 °C |  | 84.3 |  |  | 
COc1ccc2sc3c(c2c1)SCCCNC3=O [kb-NB184-02, 2,3,4,5-Tetrahydro-10-methoxybenzo[b]thieno[2,3-f]-1,5-thiazocin-6-one] | 190 ± 30 | 185 to 188 °C |  | 29.5 |  |  | 
O=C1NCCSc2c1[s+]([O-])c1ccc(O)cc21 (stereo not drawn) [kb-NB184-22, 3,4-Dihydro-9-hydroxy-6-oxide-[1]benzothieno[2,3-f]-1,4-thiazepin-5(2H)-one] |  | 160 to 163 °C (dec.) |  | 66.5 ± 6.1 |  |  | 
COc1ccc2c(c1)c1c([s+]2[O-])C(=O)NCCS1 (stereo not drawn) [kb-NB184-25, 3,4-Dihydro-9-methoxy-6-oxide-[1]benzothieno[2,3-f]-1,4-thiazepin-5(2H)-one] | 1080 | 284 to 287 °C |  | 50.4 ± 2.3 |  |  | 
O=C1NCCCOc2c1sc1ccc(OCc3ccccc3)cc21 [kb-NB184-36, 2,3,4,5-Tetrahydro-10-benzyloxybenzo[b]thieno[2,3-f]-1,5-oxazocin-6-one] |  | 195 to 200 °C |  | 83.3 ± 3.8 |  |  | 
O=C1NCCSc2c1sc1c(OCc3ccccc3)cccc21 [kb-NB184-38, 3,4-Dihydro-7-benzyloxy-[1]benzothieno[2,3-f]-1,4-thiazepin-5(2H)-one] |  | 213 to 215 °C |  | 98.6 ± 4.1 |  |  | 
O=C1NCCSc2c1sc1c(O)cccc21 [kb-NB184-40, 3,4-Dihydro-7-hydroxy-[1]benzothieno[2,3-f]-1,4-thiazepin-5(2H)-one] |  | 269 to 272 °C (dec.) |  | 99 ± 11 |  |  | 
COc1cccc2c3c(sc12)C(=O)NCCS3 [kb-NB184-44, 3,4-Dihydro-7-methoxy-[1]benzothieno[2,3-f]-1,4-thiazepin-5(2H)-one] |  | 220 to 224 °C |  | 77.5 ± 3.6 |  |  | 
COc1ccc2sc3c(c2c1)[S+]([O-])CCNC3=O (stereo not drawn) [kb-NB184-45, 3,4-Dihydro-9-methoxy-1-oxide-[1]benzothieno[2,3-f]-1,4-thiazepin-5(2H)-one] |  | 215 to 217 °C |  | 97 ± 16 |  |  | 
O=C1NCCSc2c1sc1ccc(O)c(Br)c21 [kb-NB184-52, 3,4-Dihydro-9-hydroxy-10-bromo-[1]benzothieno[2,3-f]-1,4-thiazepin-5(2H)-one] | 48 | 235 to 238 °C (dec.) |  | 12.7 ± 0.2 |  |  | 
COc1ccc2sc3c(c2c1)OCCCNC3=O [kb-NB184-57, 2,3,4,5-Tetrahydro-10-methoxybenzo[b]thieno[2,3-f]-1,5-oxazocin-6-one] |  | 233 to 237 °C |  | 62 ± 3.5 |  |  | 
COC(=O)c1sc2ccc(OC)cc2c1NCCCO [kb-NB184-80, Methyl 3-(3-hydroxypropylamino)-5-methoxybenzo[b]thiophene-2-carboxylate] |  | 116 to 120 °C |  | 91.3 ± 1.5 | not inhibitory |  | 
Nc1ccc2sc3c(c2c1)SCCNC3=O [mcf292-03, 3,4-Dihydro-9-amino-[1]benzothieno[2,3-f]-1,4-thiazepin-5(2H)-one] | 3170 | 198.6 to 199 °C |  | 74.4 ± 1.1 |  |  | 
[N-]=[N+]=Nc1ccc2sc3c(c2c1)SCCNC3=O [mcf292-08, 3,4-Dihydro-9-azido-[1]benzothieno[2,3-f]-1,4-thiazepin-5(2H)-one] | 80 ± 10 | 193 °C (dec.) |  |  |  | 74.9 | 2200 nM and 2170 nM
